Measurements published in patent US10828301B2, “2,4-pyrimidinediamine compounds and their uses” (Rigel Pharmaceuticals, Inc, priority 2002, dated 2020).

Key:
[1] = test system: cultured human mast cells (CHMC); assay: CHMC low cell density IgE activation: tryptase and LTC4 assays; format: cell-based; settings: Homo sapiens, Mast cell, Low Density CHMC, anti-IgE activation, tryptase readout; read-out: CHMC anti-IgE Tryptase
Summary of the method: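 Cultured human mast cells at low density (1000-1500 per well) rested 1 h at 37° C, then stimulated with anti-IgE for 30 min at 37° C. Supernatant tryptase measured with fluorogenic substrate (30 min, room temperature); LTC4 quantified by ELISA on diluted supernatant.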

[2] = test system: cultured human mast cells (CHMC); assay: CHMC low cell density ionomycin activation: tryptase assay; format: cell-based; settings: Homo sapiens, Mast cell, Low Density CHMC, ionomycin activation, tryptase readout; read-out: CHMC Ionomycin Tryptase

Compound | IC50 [1] | IC50 [2]
Fc1cnc(NCc2ccc3c(c2)CCO3)nc1Nc1ccc2c(c1)OCCO2 [Compound R950205, N2-[2,3-Dihydrobenzo[b]furan-5-ylmethyl]-N4-(3,4-ethylenedioxyphenyl)-5-fluoro-2,4-pyrimidinediamine] | 9 µM | > 10 µM
Fc1cnc(NCC2COc3ccccc3O2)nc1Nc1ccc2c(c1)OCCO2 (stereo not shown) [Compound R950206, N2-(2,3-Dihydro-1,4-benzodioxin-2-ylmethyl)-N4-(3,4-ethylenedioxyphenyl)-5-fluoro-2,4-pyrimidinediamine] | 3.66 µM | > 10 µM
OCCN(CCO)c1cccc(Nc2ncc(F)c(Nc3ccc4c(c3)OCCO4)n2)c1 [Compound R950209, N2-[3-Bis(hydroxyethyl)aminophenyl]-N4-(3,4-ethylenedioxyphenyl)-5-fluoro-2,4-pyrimidinediamine] | 0.748 µM | > 10 µM
Oc1cccc(Nc2nc(N=Cc3ccoc3)ncc2F)c1 [Compound R950210, N2-(3-Furylmethylene)-5-fluoro-N4-(3-hydroxyphenyl)-2,4-pyrimidinediamine] | 10 µM | > 10 µM
COc1ccc(OCCNNc2ncc(F)c(Nc3cccc(O)c3)n2)cc1 [Compound R950211, 5-Fluoro-N4-(3-hydroxyphenyl)-N2-(4-methoxyphenyloxyethyleneamino)-2,4-pyrimidinediamine] | 10 µM | > 10 µM
Oc1cccc(Nc2nc(NCc3ccc4c(c3)CCO4)ncc2F)c1 [Compound R950213, N2-[2,3-Dihydrobenzo[b]furan-5-ylmethyl]-5-fluoro-N4-(3-hydroxyphenyl)-2,4-pyrimidinediamine] | > 10 µM | > 10 µM
Oc1cccc(Nc2nc(NCC3COc4ccccc4O3)ncc2F)c1 (stereo not shown) [Compound R950214, N2-(2,3-Dihydro-1,4-benzodioxin-2-ylmethyl)-5-fluoro-N4-(3-hydroxyphenyl)-2,4-pyrimidinediamine] | 10 µM | > 10 µM
CNC(=O)C=Nc1cccc(Nc2ncc(F)c(Nc3cccc(O)c3)n2)c1 [Compound R950217, 5-Fluoro-N4-(3-hydroxyphenyl)-N2-[3-(N-methylamino)carbonylmethyleneaminophenyl]-2,4-pyrimidinediamine] | 0.34 µM | > 10 µM
NC(=O)C=Nc1cccc(Nc2ncc(F)c(Nc3cccc(O)c3)n2)c1 [Compound R950219, N2-(3-Aminocarbonylmethyleneaminophenyl)-5-fluoro-N4-(3-hydroxyphenyl)-2,4-pyrimidinediamine] | 0.439 µM | > 10 µM
CN(C)C(=O)C=Nc1cccc(Nc2ncc(F)c(Nc3cccc(O)c3)n2)c1 [Compound R950220, N2-[3-(N,N-Dimethylamino)carbonylmethyleneaminophenyl]-5-fluoro-N4-(3-hydroxyphenyl)-2,4-pyrimidinediamine] | 0.489 µM | > 10 µM
CNCCNC(=O)C=Nc1cccc(Nc2ncc(F)c(Nc3cccc(O)c3)n2)c1 [Compound R950225, 5-Fluoro-N4-(3-hydroxyphenyl)-N2-[3-[(N-methylamino)ethylamino]carbonylmethyleneaminophenyl]-2,4-pyrimidinediamine] | 5.28 µM | > 10 µM
Nc1cccc(Nc2ncc(F)c(Nc3cccc(O)c3)n2)c1 [Compound R950227, N2-(3-Aminophenyl)-5-fluoro-N4-(3-hydroxyphenyl)-2,4-pyrimidinediamine] | 1.03 µM | > 10 µM
CNC(=O)C=Nc1cccc(Nc2ncc(F)c(Nc3cccc(NCCO)c3)n2)c1 [Compound R950233, 5-Fluoro-N4-[3-(2-hydroxyethylamino)phenyl]-N2-[3-(N-methylamino)carbonylmethyleneaminophenyl]-2,4-pyrimidinediamine] | 0.98 µM | > 10 µM
Nc1cccc(Nc2nc(Nc3ccc4c(c3)N=CCO4)ncc2F)c1 [Compound R950254, N4-(3-Aminophenyl)-N2-(1,4-benzoxazin-6-yl)-5-fluoro-2,4-pyrimidinediamine] | 0.496 µM | > 10 µM
